# Test results: paper PMC10946813, “Lipophilicity Modulations by Fluorination Correlate with Membrane Partitioning” (Angewandte Chemie (International Ed. in English), 2023)
# “And” between values parts separate entries of the source, which are not always exact repeats. Equal entries are not always repeated.
# Assays:
# [1] = Molar membrane partition coefficient (logKp) by 19F MAS solid-state NMR in lipid vesicles; assay type: physicochemical; settings: for Molar Partition Coefficient (logKP): POPC; for logKp Measured as single compound (3.30 mol%): Table 1; for logKp Measured as single compound (3.30 mol%) / logKp Measured as equimolar mixture: POPC bilayers hydrated at 20 % w/v; for increase in logKp: equimolar mixture of 9 and 10 at 3.3 mol % versus compound alone
# Description: The principle of the method is explained in Figure 2 (with a detailed description of the protocol provided in Supporting Information). The method utilizes ^19F MAS NMR to quantitate the partitioning of the fluorinated compounds between the aqueous and membrane phases. […] Experimentally, it was determined that only moderate spinning speeds (10 kHz) and low power decoupling (10 kHz decoupling field) were required to obtain well resolved spectra, even at these high magnetic fields; with motional processes within the liquid crystalline lipid bilayer averaging the potentially large chemical shielding anisotropy and dipolar couplings experienced by the fluorine spins. The application of low spinning speeds and radiofrequency decoupling fields also reduces sample heating, whilst minimising the pelleting of the vesicles against the rotor wall. The absence of any discernable sidebands, resulting from incomplete averaging, simplifies the analysis, as this precludes the need to integrate the entire family of sidebands.
# With knowledge of the number of water ( nW ) and lipid ( nM ) molecules, the molar partition coefficient ( KP) is readily determined.
# To determine how the concentration of the compound and bilayer hydration influenced the measured logK P, a systematic study of these parameters was undertaken for compound 10 (Figure S2, Table S1). Samples were prepared where the lipids were hydrated at levels between 10 to 30 %(w/v), a range widely used to study the physical properties of lipid bilayers. […] On the basis of the reproducibility of these figures, all subsequent experiments were conducted at 20 % (w/v) hydration with a compound/lipid ratio of 0.033. In addition to providing excellent reproducibility, these concentrations afforded good signal to noise ratios with sensible spectral acquisition times. […]
# (§1) to the r.f. field strength then care should be taken to ensure that the two compounds are similarly excitated. Quantitative data also requires the complete relaxation of the nuclei between scans. For the studies reported here, saturation recovery measurements were performed on each system, with spectra then acquired with a recycle delay of five times T1. It […]
# (§2) shorter T1 values than that of the substrate in aqueous solution, mirroring the observation […]
# (§3) In addition to more general NMR considerations, care must also be exercised to ensure that the signal intensity, particularly that of the membrane bound state, is not influenced by anisotropic interactions that may be present. Due to the molecular dynamics within the lipid bilayer, many of these interactions are already motionally averaged facilitating their removal.
# (§4) The application of low-power (10 kHz) SPINAL-64 decoupling[2] is sufficient to remove the weak scalar and dipolar couplings that are present within the fluid lipid bilayer. Care was taken […]
# (§5) linebroadening due to temperature dependent changes in chemical shift. Similarly, data was acquired with both 5 and 10 kHz MAS and no change in isotropic chemical shift was observed […]
# (§6) However, increasing the spinning speed from 5 to 10 kHz ensured complete averaging the residual chemical shielding anisotropy and other anisotropic contrbutions to the spectra and the presence of a single isotropic resonance for each population. The absence of any discernable sidebands in spectra acquired at 10 kHz allows the accurate integration of the signal intensity without the need to integrate the entire family of sidebands which would be required for a quantitative analysis.
# (§7) Care should be taken when extending this to other compounds where the anisotropy may larger, either due to a larger chemical shielding anisotropy at the fluorine site studied or the application of higher magnetic as this would complicate the signal integration.
# Prior to Fourier Transform, data was processed with 1Hz exponential line broadening and zero filled with 16384 points. The resulting spectra was phased and base line corrected. All processing was performed in Matlab using matNMR[5]. […]
# [2] = Octanol-water partition coefficient (logP OW), 19F NMR method with reference compound
# [3] = Molar membrane partition coefficient (logKp) by 19F MAS NMR in POPC/cholesterol bilayers; assay type: physicochemical; settings: for Molar Partition Coefficient (logKP): Table S3, POPC, 20% (w/v), substrate 3.3 mol%; for fall in logKP: increasing cholesterol up to 50 mol % versus pure POPC membranes
# Source text: A major advantage of the method presented here compared to logP determination is that it can be applied to membranes of arbitrary complexity, enabling the analysis of the influence of such properties as headgroup size/charge and chain length/saturation. […] As an example of this kind of investigation, a mixed lipid system was employed. In particular, we investigated how increasing concentrations of cholesterol, a commonly found sterol in eukaryotic cell membranes, influenced the membrane partitioning of 9 and 10 (Figure 5, Table S3). […] The fall in logK P mirrors earlier studies where a reduction in membrane partitioning for small molecules has been observed.[19] This reduction has been attributed to the […] of the acyl chain packing and their favourable interactions with the cholesterol.[20] […]
# as §1, §2, §3, §4, §5, §6, §7
# Prior to Fourier Transform, data was processed with 1Hz exponential line broadening and zero filled with 16384 points. The resulting spectra was phased and base line corrected. All processing was performed in Matlab using matNMR[5]. The subsequent resonances where fitted to Lorentzian peaks using custom scripts in Matlab which are available from the authors.
# 1.4 Calculation of the molar membrane partition coefficients
# In the slow exchange limit the molar partition coefficient can then be calculated as:
# K = n",$/n$ = C",$/’(’)*.n% = I",$ . n%
# Where C",+ and C",$ are the concentrations of the substrate in the membrane and aqueous phases respectively and n", n$ and n% are the number of substrate, lipid and water molecules respectively. The ratio C",$/’(’)*/C",%/’(’)* can be determined directly from the ratio of the integrals from the signals arising from the lipidic and aqueous phases (See Figure 2, main paper), whilst the ratio of n%/n$ represents the ratio of water to lipid molecules in the membrane, the degree of hydration.
# 2 Influence of exchange between the membrane and aqueous phase on 19F MAS-NMR Lineshape (Figure S1)
# The influence of chemical exchange is well characterised in the liquid state, however […]
# [4] = Table S2, one 19F resonance evaluated
# [5] = Table S2, glycosides, first listed 19F resonance
# [6] = Table S2, glycosides, second listed 19F resonance
# [7] = individual experiment (octanol/water), one of triplicate
# [8] = octanol/water, Average logP, triplicate
# [9] = octanol/water, Error (mean logP with standard deviation), triplicate, three decimals
smiles,measurement,setting,value
OCC1(F)CC1 [compound 3],Molar Partition Coefficient (logKP),[1]; [4],2.08 ± 0.01
CO[C@H]1O[C@H](CF)[C@@H](F)[C@H](O)[C@H]1O [compound 5],Molar Partition Coefficient (logKP),[1]; [5],1.98 ± 0.02
same,Molar Partition Coefficient (logKP),[1]; [6],1.98 ± 0.03
same,logP,[2]; [7],-0.698 and -0.708 and -0.717
same,logP,[2]; [8],-0.71
same,logP,[2]; [9],-0.707
"CO[C@@H]1O[C@H](CF)[C@H](F)[C@H](O)[C@H]1O [compound 8, methyl 4,6-dideoxy-4,6-difluoro-β-D-galactopyranoside]",Molar Partition Coefficient (logKP),[1]; [5],1.69 ± 0.00
same,Molar Partition Coefficient (logKP),[1]; [6],1.64 ± 0.06
same,logP,[2]; [7],-1.257 and -1.242 and -1.253
same,logP,[2]; [8],-1.25
same,logP,[2]; [9],-1.25
CO[C@@H]1O[C@H](CF)[C@@H](F)[C@H](O)[C@H]1O [compound 6],Molar Partition Coefficient (logKP),[1]; [5],1.93 ± 0.16
same,Molar Partition Coefficient (logKP),[1]; [6],1.95 ± 0.15
same,logP,[2]; [7],-1.036 and -1.054 and -1.053
same,logP,[2]; [8],-1.05
same,logP,[2]; [9],-1.05
OC[C@@H]1C[C@@H]1F [compound 4],Molar Partition Coefficient (logKP),[1]; [4],2.02 ± 0.04
"CO[C@H]1O[C@H](CF)[C@H](F)[C@H](O)[C@H]1O [compound 7, methyl 4,6-dideoxy-4,6-difluoro-α-D-galactopyranoside]",Molar Partition Coefficient (logKP),[1]; [5],1.80 ± 0.05
same,Molar Partition Coefficient (logKP),[1]; [6],1.87 ± 0.14
same,logP,[2]; [7],-0.905 and -0.898
same,logP,[2]; [8],-0.9
same,logP,[2]; [9],-0.902
OC[C@H]1C[C@@H]1F [compound 2],Molar Partition Coefficient (logKP),[1]; [4],2.17 ± 0.05
OCCC(F)(F)CCO [compound 10],logKp Measured as single compound (3.30 mol%),[1],1.83±0.04 and 1.83±0.11
same,logKP,"[1]; Table S1, hydration 10 % w/v, substrate/lipid 0.010 mole/mole",1.73
same,logKP,"[1]; Table S1, hydration 10 % w/v, substrate/lipid 0.033 mole/mole",1.91
same,logKP,"[1]; Table S1, hydration 10 % w/v, substrate/lipid 0.100 mole/mole",1.81
same,logKP,"[1]; Table S1, hydration 20 % w/v, substrate/lipid 0.010 mole/mole",1.97
same,logKP,"[1]; Table S1, hydration 20 % w/v, substrate/lipid 0.033 mole/mole, mean value (n=3)",1.83
same,logKP,"[1]; Table S1, hydration 20 % w/v, substrate/lipid 0.100 mole/mole",1.95
same,logKP,"[1]; Table S1, hydration 30 % w/v, substrate/lipid 0.010 mole/mole",1.81
same,logKP,"[1]; Table S1, hydration 30 % w/v, substrate/lipid 0.033 mole/mole",1.69
same,logKP,"[1]; Table S1, hydration 30 % w/v, substrate/lipid 0.100 mole/mole",1.85
same,"logKP, Mean","[1]; Table S1, mean over all hydrations (10-30 % w/v) and substrate/lipid ratios (0.010-0.100)",1.85
same,Molar Partition Coefficient (logKP),[1]; [4],1.83 ± 0.04
same,mean logKP,"[1]; compound concentration 1 to 10 mol % (with respect to total lipid), mean across all levels of hydration",1.85±0.02
same,increase in logKp,[1],0.2 units
same,mean logKP,"[1]; lipids hydrated at 10 to 30 %(w/v), mean across the range of compound concentrations studied",1.85±0.06
same,logKp Measured as equimolar mixture,"[1]; mixture 9+10, 1.65 mol% each",1.84±0.01
same,logKp Measured as equimolar mixture,"[1]; mixture 9+10, 3.30 mol% each",2.01±0.04
same,logKp Measured as equimolar mixture,"[1]; mixture 10+13, 3.30 mol% each",1.88±0.11
same,Kp at 0.01 mole/mole substrate/lipid,"[1]; multilamellar POPC vesicles, Table S1, hydration 10 % w/v, substrate/lipid 0.010 mole/mole",53.4
same,Kp at 0.033 mole/mole substrate/lipid,"[1]; multilamellar POPC vesicles, Table S1, hydration 10 % w/v, substrate/lipid 0.033 mole/mole",81.8
same,Kp at 0.1 mole/mole substrate/lipid,"[1]; multilamellar POPC vesicles, Table S1, hydration 10 % w/v, substrate/lipid 0.100 mole/mole",64.5
same,Kp at 0.01 mole/mole substrate/lipid,"[1]; multilamellar POPC vesicles, Table S1, hydration 20 % w/v, substrate/lipid 0.010 mole/mole",93.9
same,Kp at 0.033 mole/mole substrate/lipid,"[1]; multilamellar POPC vesicles, Table S1, hydration 20 % w/v, substrate/lipid 0.033 mole/mole",67.6
same,Kp at 0.1 mole/mole substrate/lipid,"[1]; multilamellar POPC vesicles, Table S1, hydration 20 % w/v, substrate/lipid 0.100 mole/mole",89.4
same,Kp at 0.01 mole/mole substrate/lipid,"[1]; multilamellar POPC vesicles, Table S1, hydration 30 % w/v, substrate/lipid 0.010 mole/mole",65.3
same,Kp at 0.033 mole/mole substrate/lipid,"[1]; multilamellar POPC vesicles, Table S1, hydration 30 % w/v, substrate/lipid 0.033 mole/mole",49.2
same,Kp at 0.1 mole/mole substrate/lipid,"[1]; multilamellar POPC vesicles, Table S1, hydration 30 % w/v, substrate/lipid 0.100 mole/mole",70.7
same,Kp,"[1]; multilamellar POPC vesicles, Table S1, mean over all hydrations (10-30 % w/v) and substrate/lipid ratios (0.010-0.100)",71.6
same,Molar Partition Coefficient (logKP),[3]; membrane cholesterol 25 mol %,1.74 ± 0.02
same,Molar Partition Coefficient (logKP),[3]; membrane cholesterol 50 mol %,1.68 ± 0.05
same,fall in logKP,[3],0.17
OCCCC(F)(F)CO [compound 9],logKp Measured as single compound (3.30 mol%),[1],2.01±0.02
same,Molar Partition Coefficient (logKP),[1]; [4],2.01 ± 0.02
same,Molar Partition Coefficient (logKP),"[1]; Table S3, membrane cholesterol 0 mol %, 20% (w/v), substrate 3.3 mol%",2.01 ± 0.02
same,increase in logKp,[1],0.2 units
same,logKp Measured as equimolar mixture,"[1]; mixture 9+10, 1.65 mol% each",1.99±0.09
same,logKp Measured as equimolar mixture,"[1]; mixture 9+10, 3.30 mol% each",2.18±0.07
same,Molar Partition Coefficient (logKP),[3]; membrane cholesterol 25 mol %,1.87 ± 0.03
same,Molar Partition Coefficient (logKP),[3]; membrane cholesterol 50 mol %,1.77 ± 0.02
same,fall in logKP,[3],0.24
OCC(F)CC(F)(F)CO (stereo not drawn) [compound 14],Molar Partition Coefficient (logKP),[1]; [4],2.01 ± 0.01
OC[C@@H](F)C[C@H](F)CO [compound 15],Molar Partition Coefficient (logKP),[1]; [4],1.85 ± 0.10
"OC[C@H](F)C[C@@H](F)CO (single isomer, unassigned) [ent-15]",Molar Partition Coefficient (logKP),[1]; [4],1.82 ± 0.06
OCCC(F)CCO [compound 11],Molar Partition Coefficient (logKP),[1]; [4],1.68 ± 0.08
OCC(F)(F)CC(F)(F)CO [compound 13],logKp Measured as single compound (3.30 mol%),[1],2.40±0.07
same,Molar Partition Coefficient (logKP),[1]; [4],2.40 ± 0.07
same,logKp Measured as equimolar mixture,"[1]; mixture 10+13, 3.30 mol% each",2.50±0.10
OCC1CC1(F)F (stereo not drawn) [compound 1],Molar Partition Coefficient (logKP),[1]; [4],2.54 ± 0.08
OC[C@@H](F)C[C@@H](F)CO [compound 16],Molar Partition Coefficient (logKP),[1]; [4],1.71 ± 0.10
